Experimental data from publication PMC9229843, “Cancer-Related Somatic Mutations in Transmembrane Helices Alter Adenosine A1 Receptor Pharmacology” (Molecules, 2022).
Where a chain is given by its changes, count along the chain named.

Tests used:
hA1AR H78L^3.23 [1] = target: T1, hA1AR H78L^3.23 (Homo sapiens, UniProt P30542, H78L); experiment: yeast liquid growth assay; assay type: cell-based; conditions: result in words
T1 sequence (P30542 1-326 H78L): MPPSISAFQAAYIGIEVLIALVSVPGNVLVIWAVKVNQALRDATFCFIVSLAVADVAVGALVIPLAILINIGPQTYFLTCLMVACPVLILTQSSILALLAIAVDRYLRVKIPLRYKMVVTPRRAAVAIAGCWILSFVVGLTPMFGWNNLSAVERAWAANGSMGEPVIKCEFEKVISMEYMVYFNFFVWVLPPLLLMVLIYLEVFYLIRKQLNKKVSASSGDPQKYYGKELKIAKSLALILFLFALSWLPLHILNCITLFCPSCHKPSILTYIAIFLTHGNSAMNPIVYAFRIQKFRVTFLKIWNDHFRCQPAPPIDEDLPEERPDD
Experimental: The plasmids, pDT-PGK_hA1AR, containing either wild type or mutated hA1AR were transformed into a MMY24 S. cerevisiae strain following the lithium acetate procedure.
In order to characterize the mutant hA1ARs, liquid growth assays in 96-well plates were performed to obtain concentration–growth curves as previously described. […] The overnight cultures were then diluted to 40,000 cells/mL (OD600 ≈ 0.02) in a selective medium without uracil, leucine, and histidine (YNB-ULH). For the determination of constitutive activity, 50 μL of yeast cells and 150 μL of YNB-ULH medium containing different concentrations of 3-AT and 0.8 IU/mL ADA were then added to each well. To obtain concentration–growth curves, 2 μL of various concentrations of ligands, 50 μL of yeast cells, and 150 μL of YNB-ULH medium containing 7 mM 3-AT and 0.8 IU/mL ADA were then added to each well. After incubation at 30 °C for 35 h in a Genios plate reader (TECAN, Zürich, Switzerland) with shaking for 1 min at 300 rpm every 10 min, the optical density was measured at a wavelength of 595 nm, which represented the level of yeast cell growth.
(§1) All experimental data were analyzed by GraphPad Prism 7.0 or 8.0 (GraphPad Software Inc., San Diego, CA, USA). Data from yeast liquid growth and [^35S]GTPγS binding assays were analyzed by non-linear regression using “log (agonist) vs. response (three parameters)” or “log (inhibitor) vs. response (three parameters)” to obtain potency (EC50), inhibitory potency (IC50), and efficacy (Emax or Imax) values. The radioligand displacement curves were obtained from a statistically preferred one-site or two-site binding model. pKi values were calculated from pIC50 values using the Cheng–Prusoff equation, where KD values were obtained from the homologous competition assays from this study and calculated by non-linear regression using “one site–homologous” [62].

hA1AR G279S^7.44 = target: T2, hA1AR G279S^7.44 (Homo sapiens, UniProt P30542, G279S); conditions: [35S]GTPγS; CPA at EC80; ratio over basal activity of wild type or mutant hA1AR
T2 sequence (P30542 1-326 G279S): T1 sequence (P30542 1-326 H78L) with L78H, G279S
Experimental: (§2) Transient transfection of CHO cells with wild type or mutated hA1AR plasmid constructs was performed using a polyethylenimine (PEI) method. Cells were seeded in 10-cm culture dishes to achieve 50–60% confluency 24 h prior to transfection. On the day of transfection, cells were transfected with a PEI: DNA ratio of 3:1 and a plasmid DNA amount of 10 μg/dish. Moreover, 24 h post-transfection, the medium was refreshed, and 48 h after transfection, cells were collected and membranes were prepared as previously described. Membranes were aliquoted in 250 or 100 μL and stored at −80 °C. Membrane protein concentrations were determined using the BCA method.
(§3) [^35S]GTPγS binding assays were adapted from a previously published method. […] Then, 20 µL of [^35S]GTPγS (final concentration of 0.3 nM) was added to each well, followed by 90 min of incubation at 25 °C. Incubations were terminated and filter-bound radioactivity was measured as described above.
as §1

hA1AR H78L^3.23 [2] = target: T1, hA1AR H78L^3.23; conditions: [35S]GTPγS; CPA at EC80; ratio over basal activity of wild type or mutant hA1AR
Experimental: as §2, §3, §1

hA1AR L134F^4.52 = target: T3, hA1AR L134F^4.52 (Homo sapiens, UniProt P30542, L134F); conditions: [35S]GTPγS; CPA at EC80; ratio over basal activity of wild type or mutant hA1AR
T3 sequence (P30542 1-326 L134F): T1 sequence (P30542 1-326 H78L) with L78H, L134F
Experimental: as §2, §3, §1

hA1AR S246T^6.47 = target: T4, hA1AR S246T^6.47 (Homo sapiens, UniProt P30542, S246T); conditions: [35S]GTPγS; CPA at EC80; ratio over basal activity of wild type or mutant hA1AR
T4 sequence (P30542 1-326 S246T): T1 sequence (P30542 1-326 H78L) with L78H, S246T
Experimental: as §2, §3, §1

hA1AR W188C^5.46 = target: T5, hA1AR W188C^5.46 (Homo sapiens, UniProt P30542, W188C); conditions: [35S]GTPγS; CPA at EC80; ratio over basal activity of wild type or mutant hA1AR
T5 sequence (P30542 1-326 W188C): T1 sequence (P30542 1-326 H78L) with L78H, W188C
Experimental: as §2, §3, §1

wild type hA1AR = target: T6, wild type hA1AR (Homo sapiens, UniProt P30542); conditions: [35S]GTPγS; CPA at EC80; ratio over basal activity of wild type or mutant hA1AR
T6 sequence (P30542 1-326): T1 sequence (P30542 1-326 H78L) with L78H
Experimental: as §2, §3, §1

reduction of constitutive activity by inverse agonist (hA1AR H78L^3.23 [1]): not reduced
Imax (hA1AR G279S^7.44): 0.65 ± 0.08
Imax (hA1AR H78L^3.23 [2]): 0.83 ± 0.03
Imax (hA1AR L134F^4.52): 0.68 ± 0.01
Imax (hA1AR S246T^6.47): 0.70 ± 0.05
Imax (hA1AR W188C^5.46): 0.74 ± 0.03
Imax (wild type hA1AR): 0.67 ± 0.05
Structure (SMILES): CCCn1c(=O)c2[nH]c(C3CCCC3)nc2n(CCC)c1=O [DPCPX, 8-cyclopentyl-1,3-dipropylxanthine]
